From ChEMBL document CHEMBL3046882, “Synthesis and antibacterial activity against ralstonia solanacearum for novel hydrazone derivatives containing a pyridine moiety” (2012)

How the values were obtained:
[1] = system: Ralstonia solanacearum; assay: Antibacterial activity against Ralstonia solanacearum assessed as growth inhibition at […] after 48 hrs by turbidimeter test; type: functional; design: dose or concentration left out as unconfirmed; conditions: for inhibition of growth: read-out: GI
[2] = system: Ralstonia solanacearum; assay: Antibacterial activity against Ralstonia solanacearum assessed as growth inhibition at […] after 48 hrs by turbidimeter test; type: functional; design: dose or concentration left out as unconfirmed; conditions: for inhibition of growth: read-out: GI

Cc1cc(Cl)cc(C(=O)N/N=C\c2ccc(F)cc2)c1NC(=O)c1cccnc1Cl
inhibition of growth [1]: 1.1%
inhibition of growth [2]: 5%

COc1ccc(OC)c(/C=N\NC(=O)c2cc(Cl)cc(C)c2NC(=O)c2cccnc2Cl)c1
inhibition of growth [1]: 1.9%
inhibition of growth [2]: 25.2%

COPPER HYDROXIDE
growth inhibition (GI) [1]: 100%
growth inhibition (GI) [2]: 100%

COc1cccc(/C=N\NC(=O)c2cc(Cl)cc(C)c2NC(=O)c2cccnc2Cl)c1OC
inhibition of growth [1]: 0%
inhibition of growth [2]: 40.3%

Cc1cc(Cl)cc(C(=O)N/N=C\c2cccc(C(F)(F)F)c2)c1NC(=O)c1cccnc1Cl
inhibition of growth [1]: 33.3%
inhibition of growth [2]: 80.9%

Cc1cc(Cl)cc(C(=O)N/N=C\c2ccc(C(C)(C)C)cc2)c1NC(=O)c1cccnc1Cl
inhibition of growth [1]: 18.2%
inhibition of growth [2]: 39%

COc1ccc(/C=N\NC(=O)c2cc(Cl)cc(C)c2NC(=O)c2cccnc2Cl)c(OC)c1
inhibition of growth [1]: 0%
inhibition of growth [2]: 36.1%

CC/C=N\NC(=O)c1cc(Cl)cc(C)c1NC(=O)c1cccnc1Cl
inhibition of growth [1]: 0%
inhibition of growth [2]: 5%

Cc1cc(Cl)cc(C(=O)N/N=C\N(C)C)c1NC(=O)c1cccnc1Cl
inhibition of growth [1]: 57.1%
inhibition of growth [2]: 100%

Cc1cc(Cl)cc(C(=O)N/N=C\c2ccccc2Cl)c1NC(=O)c1cccnc1Cl
inhibition of growth [1]: 0%
inhibition of growth [2]: 6%

Cc1cc(Cl)cc(C(=O)N/N=C\c2c(Cl)cccc2Cl)c1NC(=O)c1cccnc1Cl
inhibition of growth [1]: 15.2%
inhibition of growth [2]: 18.2%

Cc1cc(Cl)cc(C(=O)N/N=C\c2ccc(Cl)c(Cl)c2)c1NC(=O)c1cccnc1Cl
inhibition of growth [1]: 12.4%
inhibition of growth [2]: 35%
